Read-outs that look alike come from different tables or passages of the source.

In test [1] the test system is P20.1 antibody. Kind of test: Epitope analysis by ELISA with P4-Fn proteins and Ala mutants. Type of test: binding, mouse. The conditions noted are these: coated Fn fusion protein 10 μg/mL, P20.1 antibody 2 to 5 μg/mL, absorbance 405 nm. The procedure: The minimum peptide sequence required for recognition by the P20.1 antibody was identified by the ELISA method using various kinds of P4-Fn proteins prepared in the above (2-1). The protocol is as follows.
(1) A P4-Fn (or a mutant thereof) solution diluted at 10 μg/mL was added at 50 μL/well to 96-well plates, which were then allowed to stand (4° C., 16 hours).
(2) The supernatant of each well was removed with an aspirator, a 1% BSA solution in Tris-buffered saline (TBS; 20 mM Tris-HCl, 150 mM NaCl, pH 7.5) was added at 200 μL/well, and the plates were allowed to stand at room temperature for 1 hour.
(3) A P20.1 antibody solution (2 to 5 μg/mL) was added at 50 μL/well and the plates were allowed to stand at room temperature for 1 hour.
(4) Each well was washed with 200 μL of TBS 3 times.
(5) A peroxidase-labeled anti-mouse IgG (1/1000 dilution) was added at 50 μL/well, and the plates were allowed to stand at room temperature for 30 minutes.
(6) Each well was washed with 200 μL of TBS 4 times.
(7) A peroxidase chromogenic substrate (ABTS) was added at 100 μL/well, the plates were allowed to stand at room temperature for 5 to 10 minute, and then the absorbance of the solution in each well was measured at 405 nm.
The ELISA results of 5 different tag peptide fusion proteins having the P4 peptide attached to the N terminus of the Fn are shown in FIG. 5. […]

The subject of test [2] is P20.1 antibody. Briefly: Sandwich ELISA, P20.1 antibody as detection antibody. The conditions noted are these: diluted cell supernatant, biotinylated P20.1 antibody 5 μg/mL, absorbance 405 nm. Type of test: binding, mouse. The method, then:
The anti-hGH monoclonal antibody HGH-B was immobilized to microtiter plates. After blocking, the supernatant of cells transiently expressing the hGH-γC-P4 fusion protein having P4×1, P4×3 or P4×5 linked thereto (see FIG. 3, FIG. 4 and SEQ ID NO: 15) was added at various dilution ratios to wells of the plates, which were then allowed to stand at 4° C. overnight. In this way, such a fusion protein was captured by the antibody on the plates. After washing, a biotinylated P20.1 antibody (5 μg/mL) was allowed to react with the fusion protein at room temperature for 30 minutes. After 3-time washing, peroxidase-labeled streptavidin (Zymed) was added to the plates, which were then allowed to stand at room temperature for additional 15 minutes. After addition of peroxidase substrate (ABTS), the absorbance at 405 nm was measured.
(In general: An ELISA detects its analyte on a solid surface through an enzyme-linked reagent.)

The next test has as its system P20.1 antibody-Sepharose. Kind of test: Pull-down efficiency with P20.1 antibody-immobilized beads. Type of test: binding, mouse. To be noted: pull-down by P20.1 antibody-Sepharose. The procedure:
Three different hGH-γC-P4 fusion proteins, which have P4×1, P4×3 or P4×5, were separately expressed in HEK293T cells. The fusion protein in the separate cell culture supernatant was quantified by the sandwich ELISA (which adopts a system of hGH antibody-mediated capture+anti-BAS serum-mediated detection, and is not dependent on the responsiveness to the P20.1 antibody) (before pull-down). Aside from this, to 1 mL of the cell culture supernatant, 20 μL of the P20.1 antibody-Sepharose (bead form) was added, and then the mixture was allowed to react at 4° C. for 1 hour. After the beads were precipitated by centrifugation, the fusion protein in the supernatant was quantified by the sandwich ELISA (which adopts a system of hGH antibody-mediated capture+anti-BAS serum-mediated detection, and is not dependent on the responsiveness to the P20.1 antibody) (after pull-down). The fusion protein purified with Ni-NTA agarose was used as a standard, and based on the standard curve, the fusion protein concentrations before and after pull-down by the P20.1 antibody were determined. As is clear from Table 4, 3 to 5 repeats of the P4 sequence achieves the binding efficiency of about 80%.

In test [3] the test system is P20.1 antibody. Kind of test: Kinetics analysis by surface plasmon resonance, P4 sequence repeats over P20.1 antibody-immobilized sensor chip. Type of test: binding, mouse. To be noted: hGH-γC fusion proteins, flow rate 20 μL/min, Biacore X-100. The method, then: For improvement of the efficacious affinity for the P20.1 antibody, tag peptide fusion proteins having a repeated sequence, specifically 1, 3 or 5 repeats of the P4 sequence (referred to as P4×1, P4×3 or P4×5, in the above order) were prepared (see the above (2-2)). These proteins were allowed to separately pass at a flow rate of 20 μL/min over the P20.1 antibody-immobilized sensor chip, and kinetics analysis was conducted using Biacore X-100 (GE Healthcare).

The test system of test [4] is P4(20)-Fn protein-P20.1 antibody binding. Briefly: Competitive dissociation by peptide (ELISA). The conditions noted are these: peptide concentration of 0.1 mg/mL, 30 minutes. The procedure: For examination on whether an excess of free peptides can disrupt protein-P20.1 antibody binding, at the final washing step of the (3-1) ELISA experiment using the P4(20)-Fn protein, buffer solutions containing different concentrations of the P4(C8) peptide (8-residue peptide PRGYPGQV (SEQ ID NO: 20) synthesized by the Fmoc method) were added to wells and the plates were allowed to stand for 30 minutes.

Test [5] deals with P4×3-tagged hGH fusion protein bound to P20.1 antibody-Sepharose. Kind of test: Elution of P4×3-tagged hGH fusion protein from P20.1 antibody-Sepharose. The conditions noted are these: in TBS, room temperature, 10 minutes. The method, then: With 8 mL of the culture supernatant of cells expressing the P4×3-tagged hGH fusion protein, 100 μL of the P20.1 antibody-Sepharose (0.2 mg in terms of the P20.1 antibody, bead form) was mixed, and then the mixture was allowed to react at 4° C. for 3 hours. After the reaction, the beads were washed with 3 mL of Tris-buffered saline (TBS; 20 mM Tris-HCl, 150 mM NaCl, pH 7.5), and 300 μL of an eluent as shown below was added to and mixed with the beads at room temperature for 10 minutes. The effluent obtained by each eluent was concentrated and then was subjected to SDS gel electrophoresis at an equal amount. For comparison, affinity binding was also performed using Ni-NTA beads on the same conditions as above, and the effluent obtained by use of imidazole as an eluent was analyzed simultaneously.
The above-mentioned numbers correspond to the lane numbers in FIG. 23 (a). “Ni” indicates the effluent from Ni-NTA beads. As shown in FIG. 23 (a), the tagged fusion protein which was bound to the P20.1 antibody-Sepharose was not only eluted with 0.1 mg/mL or more of the P4(C8) peptide, but also completely eluted by combined use of propylene glycol and sodium chloride. […]

For another test, the target named is T1, P4(20)-Fn (Homo sapiens, UniProt P02751).
T1 construct: the 9th to 10th region of the Fn3 domain of human fibronectin (185 residues); made in house; host or cells: pET11c vector
Kind of test: Surface plasmon resonance analysis (Biacore): binding affinity of P20.1 antibody for P4 peptide sequence. The procedure: For examination on the binding affinity of the P20.1 antibody for the P4 peptide sequence, the surface plasmon resonance analysis using Biacore was performed. After the P4(20)-Fn (see FIG. 1) purified in the (2-1) was biotinylated and then captured by a streptavidin-immobilized sensor chip, a purified P20.1 antibody was allowed to flow over the prepared sensor chip at various concentrations. […] Similarly, a commercially available Flag ([…] (SEQ ID NO: 19)) and corresponding antibody M2 were used for examination on the affinity of M2 for Flag-tagged Fn (Flag-Fn).
(SPR reads the build-up and loss of mass on a sensor chip optically.)

The nature of test [6]: Phage display random screening of the peptide sequence recognizable by the P20.1 antibody. The test is classed as binding. To be noted: panning with P20.1 antibody-immobilized magnetic beads. From the text:
For extensive search for the peptide sequence recognizable by the P20.1 antibody, the phage display method was employed. The phagemid shown in FIG. 11 was constructed for insertion of the randomized 7-amino-acid peptide library (all of them have Tyr2 and Gln5 in common) into the N terminus of the gIII coat protein of M13 phage. As a result, the phage library of 10^7 members was obtained.
Through panning by use of P20.1 antibody-immobilized magnetic beads, a number of clones bound to the beads were obtained. The sequence of the variable region in these different clones was decoded by DNA sequencing, and the sequence pattern as shown in FIG. 12 was obtained. […] Namely, it can be said that the P20.1 antibody generally has a high affinity for the following peptide sequence: X1-Tyr2-Pro3-Gly4-Gln5-X6: SEQ ID NO:21 (wherein X1 is any amino acid residue; Pro3 may be an amino acid having a small side chain, such as S, V, C, A, T, E, G and D; and X6 is any hydrophobic amino acid). X-Ray Crystallography of the P20.1 Antibody Fab Fragment-Peptide Complex (5-1) Amino Acid Sequencing of the P20.1 Antibody Variable Region DNA Cloning from Hybridoma

[7] abbreviates: P20.1 antibody flowed over biotinylated P4(20)-Fn captured on streptavidin sensor chip.

Take GGDDSTPSILPAPRGYPGQVC [P4 peptide]: the “recognition by / responsiveness to the P20.1 antibody” value in the test on P20.1 antibody [1] is given as “can be recognized by the P20.1 antibody”.

Take “P4 × 5: hGH/fibrinogen γC fusion protein tagged with 5 repeats of the P4 sequence GYPGQV”: the “signals in sandwich ELISA” value with P20.1 antibody [2] was “dose-dependent signals were observed in 30-fold or less diluted supernatant”. The Binding efficiency in the test on P20.1 antibody-Sepharose was 80%. The “affinity / binding capacity for the P20.1 antibody” value in the test on P20.1 antibody [3] is given as “further increased binding capacity”.

For PRGYPGQV [P4(C8) peptide], the “dissociation of protein-P20.1 antibody binding by free peptide” value in test [4] is given as “almost complete dissociation”. Moreover, in test [5], the “peptide concentration that eluted the tagged fusion protein” value was at least 0.1 mg/mL.

As to “P4 × 3: hGH/fibrinogen γC fusion protein tagged with 3 repeats of the P4 sequence GYPGQV”, in the test with P20.1 antibody [2], the “signals in sandwich ELISA” value is on record as “dose-dependent signals were observed in 30-fold or less diluted supernatant”. This molecule displayed a Binding efficiency with P20.1 antibody-Sepharose of 78%.

For “P4: hGH/fibrinogen γC fusion protein tagged with 1 repeat of the P4 sequence GYPGQV”, the “signals in sandwich ELISA” value in the test on P20.1 antibody [2] is “only weak signals were detected in 3-fold or less diluted supernatant”. This molecule showed a Binding efficiency in the test with P20.1 antibody-Sepharose of 14%. In addition, in the test with P20.1 antibody [3], the “affinity / binding capacity for the P20.1 antibody” value is on record as “extremely weak affinity”.

Turning to GYPGQV [P4 sequence], the “recognition by / responsiveness to the P20.1 antibody” value in the test on P20.1 antibody [1] was “enough for recognition by the P20.1 antibody”.

B1: P20.1 Ab: monoclonal antibody produced by mouse-mouse hybridoma P20.1 (FERM BP-11061), IgG1 isotype, λ light chains, against N-terminal 20 residues of human PAR4 (antibody, V domains shown)
VH: QIQLVQSGPEVQKPGETVRISCKASGYTFTTAGMQWVQKMPGKSLKWIGWINTRSGVPKYAEDFKGRFAFSLETSASIAYLHINNLKNEDTATYFCAREGPGFVYWGQGTLVTVSA
VL: QTVVTQESALTTSPGETVTLTCRSSTGVVTTSNYANWVQEKPDHLFTGLIVGTNNRVPGVPPRFSGSLIGDKAALTITGAQTEDEAIYFCALWYSNHWVFGGGTKLTVL
For B1, in the test with P4(20)-Fn (setting [7]), the “Ka” value was 365000 M⁻¹ s⁻¹. Further, the “Kd(1/s)” value with P4(20)-Fn (setting [7]) is 0.00123 s⁻¹. For the same molecule, the Kd was 3.38 nM with P4(20)-Fn (P20.1 antibody flowed over biotinylated P4(20)-Fn captured on streptavidin sensor chip, read-out: KD) and about 3.4 nM with P4(20)-Fn (affinity for the P4(20)-Fn, read-out: apparent dissociation equilibrium constant (Kd)). In addition, the “peptide sequence required for recognition” value in test [6] is “requires the presence of tyrosine, glycine and glutamine at position 2, 4 and 5”.

For the origin of these results see US8975384B2, “Tag peptide and use thereof” (Osaka University, priority 2008, dated 2015).
